Test results published in US11992620B2, “Methods of reducing the risk of mortality associated with a medical treatment” (Mallinckrodt Hospital Products IP Limited, priority 2013, dated 2024).
Like-named read-outs stand apart in the source and are kept apart here.

Key:
[1] = tested on: pre-term neonates; details: 5 ppm for 7-21 days, cited from earlier work
[2] = tested on: pre-term neonates; details: 10 ppm for 1 day, then 5 ppm for 6 days, cited from earlier work
[3] = tested on: preterm neonates less than 30 weeks gestational age and less than 1250 grams; test: BPD-301 study: multi-center, double blind, placebo-controlled randomized clinical trial of inhaled nitric oxide for prevention of BPD; assay type: in vivo, human; parameters: Mortality by race, % / ALIVE No (mortality rate), %: concentration or dose not given beside the values; details: for Mortality by race, %: INO N = 229
Method: A multi-center, double blind, placebo-controlled randomized clinical trial designated the “BPD-301” study was conducted to examine the efficacy of inhaled nitric oxide in preventing BPD in preterm neonates less than 30 weeks gestational age and less than 1250 grams who required mechanical ventilation or positive pressure support. Patients were identified as (1) American Indian or Alaska Native, (2) Asian, (3) Black, (4) Hispanic, (5) White, or (6) Other. Continuous inhaled nitric oxide or placebo gas administration into the inspiratory limb of the ventilator circuit in the mechanically ventilated subject was accomplished using an INOvent® delivery device. The placebo group received the same dose of nitrogen that the active or treatment group received of inhaled nitric oxide. Administration of inhaled nitric oxide or placebo was begun at a point during the window of time 5 to 14 days after the subject's birth and continued for 24 days thereafter. The starting dose was 20 ppm. A dose reduction schedule was followed: after 72 hours of treatment at 20 ppm, reducing to 10 ppm, and then reducing to 5 ppm on day 10. If an infant was extubated before 24 days, therapy was continued via nasal continuous positive airway pressure or nasal cannula to complete the protocol. 451 infants less than 30 weeks of gestation age were included in this trial, of which 449 were randomized and 2 were not randomized. There was a 1:1 randomization with 220 infants treated with placebo and 229 treated with inhaled nitric oxide.
In order to enroll in the BPD 301 study and receive inhaled nitric oxide for the prevention of BPD, a pre-term neonate could not have already previously been administered inhaled nitric oxide.
Additionally, if the pre-term neonate had undiagnosed pulmonary hypertension and happened to be placed on placebo (nitrogen) for purposes of the BPD-301 study, the pre-term neonate's hypoxic respiratory failure would have worsened and would have likely required immediate treatment with commercial inhaled nitric oxide. This administration of commercial inhaled nitric oxide would have failed the subject from the trial, both reducing the power of the trial and eliminating the subject from the study analysis.
A synopsis of the BPD-301 protocol follows.
The placebo and treatment groups were matched for the following characteristics: gestational age, age at the start of treatment, sex, length at birth, weight, head circumference, respiratory severity scores, apgar scores, and physical exam results.

[4] = tested on: pre-term neonates; details: 5 ppm increased to 10 ppm if no response; mean 3 days therapy; cited from earlier work
[5] = tested on: pre-term neonates; details: 5 ppm while intubated, cited from earlier work
[6] = tested on: pre-term neonates; details: cited from earlier work
[7] = tested on: experimental BPD in preterm lambs; details: prolonged therapy, cited from earlier work
[8] = tested on: pre-term neonates; details: 5 ppm for 7 days, cited from earlier work
[9] = FEMALE N = 64, inhaled nitric oxide-treated white infants less than 27 weeks gestational age
[10] = median treatment duration 14 days

In the case of `[N]=O` [inhaled nitric oxide, nitric oxide], the “survival without BPD at 36 weeks postmenstrual age” value [1] is listed as 65%, the “survival without BPD at 36 weeks postmenstrual age vs placebo” value ([1]; p=0.73) is listed as “no difference” and the CLD/death [2] is listed as 48.6%. For the same compound, the “severe IVH/PVL” value [2] was 12.4%, the “reduction in "abnormal or delayed" development” value ([2]; p=0.01) was 47% and the “reduction in CLD/death” value ([2]; vs placebo, p=0.03) was 24%. The “reduction in severe IVH/PVL” value ([2]; vs placebo, p=0.04) was 47%, the “Mortality by race, %” value ([3]; ALL, p=0.436 vs placebo, Fisher's exact test) was 11.35% and the “Mortality by race, %” value ([3]; American Indian or Alaska Native) was 0.00%. The “Mortality by race, %” value ([3]; Asian) was 0.00%, the “Mortality by race, %” value ([3]; Black) was 2.62% and the “ALIVE No (mortality rate), %” value [3, 9] was 4.7%. The “ALIVE Yes, %” value [3, 9] was 95.3%, the “Mortality by race, %” value ([3]; Hispanic) was 1.31% and the “ALIVE No (mortality rate), %” value ([3]; MALE N = 56, inhaled nitric oxide-treated white infants less than 27 weeks gestational age) was 21.4%. For the same compound, the “ALIVE Yes, %” value ([3]; MALE N = 56, inhaled nitric oxide-treated white infants less than 27 weeks gestational age, p=0.011 male vs female) was 78.6%, the “Mortality by race, %” value ([3]; Native Hawaiian or other Pacific Islander) was 0.00% and the “Mortality by race, %” value ([3]; Other) was 0.87%. The “Mortality by race, %” value ([3]; White) was 6.55%, the “difference in mortality between treatment and placebo groups” value ([3]; any other racial category (than white)) was “no similar difference” and the “mortality rate, inhaled nitric oxide vs placebo group” value ([3]; overall trial population, Fisher's exact test p=0.436) was “not significantly different”. For the same compound, the “mortality rate vs placebo group” value ([3]; white population) was “higher mortality rate”, the “ALIVE No (deaths), %” value ([3]; white preterm infants less than 27 weeks gestational age, INO N = 120) was 12.5% and the “ALIVE Yes, %” value ([3]; white preterm infants less than 27 weeks gestational age, INO N = 120, p=0.010 vs placebo) was 87.5%. The “risk of death as compared to placebo” value ([3]; white, male, preterm infants of less than 27 weeks gestational age treated for prevention of BPD) was “significant risk of death”, the IVH vs placebo [4] was “no difference” and the “death or BPD vs placebo” value [4] was “no difference”. The IVH/PVL [5] was 17.5%, the CLD or death [5, 10] was 71.6% and the “CLD or death vs placebo” value [5, 10] was “no difference”. The “reduction in IVH/PVL” value ([5]; vs placebo) was 27%, the “survival without CLD at 36 weeks postmenstrual age” value ([6]; 20 ppm for 2 to 4 days, then stepped-down weekly, 24 days) was 43.9% and the “improvement in survival without CLD at 36 weeks postmenstrual age” value ([6]; 20 ppm for 2 to 4 days, then stepped-down weekly, 24 days, vs placebo, p=0.042) was 20%. The “discharged or off all ventilator support” value ([6]; 40 weeks, p=0.01) was 65%, the “discharged or off all ventilator support” value ([6]; 44 weeks, p=0.03) was 82% and the lung vascular growth ([7]; after VEGF inhibition) was “improves lung vascular growth”. For the same compound, the alveolarization ([7]; experimental BPD in preterm lambs) was “improves alveolarization”, the “death or BPD” value [8] was 77% and the “severe intraventricular haemorrhage (IVH)” value [8] was “no increase”. For the same compound, the “reduction in death or BPD” value ([8]; vs placebo, p=0.14) was 15.4%.
